Counter-ions that a name gives are not always drawn.
Columns and labels:
[1] = test system: mice; assay: Anti-Marble Burying Behavior Test in Mice; assay type: in vivo; conditions: Mus musculus, reduction in number of marbles buried, ip
Text: Marble burying was developed and validated as a pre-clinical assay of potential anxiolytic activity (Andrews and Broekkamp (1993). Procedures to Identify Anxiolytic or Anxiogenic agents. In Behavioural Neuroscience, ed. A Sahgal, pp. 37-54. IRL Press, Oxford). The marble burying test places a naive mouse into a novel environment containing 25 marbles (arranged on top of a sawdust surface). A reduction in the number of marbles buried by the mouse was hypothesized to be an anxiolytic-like effect.

[2] = target: T1, Serotonin 1A (5-HT1A) receptor (Rattus norvegicus, UniProt P19327); assay: Serotonin 1A (5-HT1A) receptor inhibition assay, [3H]8-OH-DPAT binding to rat cortex membranes; parameters: species or system Sprague-Dawley (SD) rats; conditions: 10 nM test compound; 0.92 nM [3H]8-OH-DPAT; rat cortex homogenate; 60 min at 25° C.
T1 construct: The cortex tissue were homogenized in 30 volumes of ice-cold 50 mM Tris-HCl buffer; from tissue; host or cells: Sprague-Dawley rat brain cortex membranes
T1 sequence (P19327 1-422): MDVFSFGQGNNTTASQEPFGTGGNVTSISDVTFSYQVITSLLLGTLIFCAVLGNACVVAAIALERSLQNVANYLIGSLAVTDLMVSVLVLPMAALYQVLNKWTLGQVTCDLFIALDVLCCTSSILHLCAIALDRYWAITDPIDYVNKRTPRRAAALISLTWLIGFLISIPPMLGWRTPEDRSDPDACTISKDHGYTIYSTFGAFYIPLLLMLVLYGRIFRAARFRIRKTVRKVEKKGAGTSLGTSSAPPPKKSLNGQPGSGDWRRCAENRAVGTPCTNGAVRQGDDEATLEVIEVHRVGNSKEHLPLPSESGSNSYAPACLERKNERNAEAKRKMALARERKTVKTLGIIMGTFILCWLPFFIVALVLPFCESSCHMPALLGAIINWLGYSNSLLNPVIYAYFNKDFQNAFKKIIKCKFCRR
Method: The method to test the ability of compounds to inhibit serotonin 1A(5-HT1A) receptors was using Hall. et al., J Neuro Chem., 1985, 44, p 1685-1696 with modification.
The Sprague-Dawley (SD) rats were killed by decapitation and their brains rapidly removed at 4° C. The cortex tissue were homogenized in 30 volumes of ice-cold 50 mM Tris-HCl buffer (pH7.4) using an ultra-turrax T8 and centrifuged at 48,000 g for 20 min. The supernatant was discarded and the pellet washed twice by resuspension in 20 volumes Tris-HCl and centrifugation, homogenized in 20 volumes Tris-HCl, and incubated at 37° C. for 10 min. Membranes were than collected by centrifugation and washed twice before final resuspension in 10 volumes of 50 mM Tris-HCl, pH7.4.
For binding assays, the incubation medium consisted of 162.5 ug of tissue homogenate, 0.92 nM of [3H]8-OH-DPAT and vehicle or 10 uM of 5-HT or 10 nM of test compounds per well. 5-HT and test compounds were dissolved in distilled water and incubation medium was 50 mM Tris(pH7.4 at room temperature). The assay plates (96 well) were incubated for 60 min at 25° C. The reaction was terminated by rapid filtration using a Tomtec harvester, through GF/C glassfibre filter with 5 times washes of Tris buffer. The radioactivity retained on the filters was counted by scintillation spectroscopy (MicroBeta TriLux, Wallac). The tests were triplicates. Percent inhibition was calculated as below equation.
Total binding is the value of vehicle treated group and specific binding is the values that deduct non-specific binding (i.e. the value of non-specific ligand, 5-HT).

[3] = test system: mice; assay: Tail Suspension Test in Mice (TST); assay type: in vivo; conditions: Mus musculus, reduction in immobility vs control group, 1 mg/kg, po
Text: Tail Suspension Test in mice is the well-known animal model to determine antidepressant efficacy of compounds by checking escaping behavior and immobility time of mice. Mice treated with antidepressant drug show escaping behavior continuously comparing with control group.
The mice were mainly treated orally with the test compound dissolved in 30% PEG400 or with only 30% PEG400 as control. Tail of mouse is suspended to the rod of TST equipment and end of tail is fixed with sticky tape. Suspended mouse is incubated during 2 min for training and adaptation and after following 2 min, observe escaping behavior and check immobility time for 4 min. The potent ability of the compounds was determined as percent value of reduction in immobility comparing to control group as 100% baseline.

| Structure (SMILES) | inhibition at 0.01 µM [2] [%] | inhibition in vivo at 7.5 mg/kg [1] [%] | inhibition in vivo at 1 mg/kg [3] [%] | inhibition in vivo at 3 mg/kg [1] [%] |
| --- | --- | --- | --- | --- |
| COc1ccccc1N1CCN(CCCCOc2ccc(Cn3nccn3)cc2)CC1 [Example 11, 1-(2-methoxy-phenyl)-4-[4-(4-[1,2,3]triazol-2-ylmethyl-phenoxy)-butyl]-piperazine] | 61.8 | 69 | 25 |  |
| COc1ccccc1N1CCN(CCCCOc2ccc(CN(C)C)cc2)CC1 [Example 19, (4-{4-[4-(2-methoxy-phenyl)-piperazin-1-yl]-butoxy}-benzyl)-dimethyl-amine dihydrochloride] | 59.6 | 50.8 | 50.6 |  |
| COc1ccccc1N1CCN(CCCCOc2cccc(CN(C)C)c2)CC1 [Example 28, (3-{4-[4-(2-methoxy-phenyl)-piperazin-1-yl]-butoxy}-benzyl)-dimethyl-amine] | 13.5 |  |  | 24.6 |
| Clc1cccc(N2CCN(CCCCOc3ccc(Cn4ncnn4)cc3)CC2)c1Cl [Example 36, 1-(2,3-dichloro-phenyl)-4-[4-(4-tetrazol-2-ylmethyl-phenoxy)-butyl]-piperazine] | 28.1 |  |  | 25.3 |
| COc1ccccc1N1CCN(CCCCOc2ccc(CCn3cncn3)cc2)CC1 [Example 48, 1-(2-methoxy-phenyl)-4-{4-[4-(2-[1,2,4]triazol-1-yl-ethyl)-phenoxy]-butyl}-piperazine] | 48 |  | 26.2 | 31.3 |
| COc1ccccc1N1CCN(CCCCOc2ccc(CCn3ccnn3)cc2)CC1 [Example 50, 1-(2-methoxy-phenyl)-4-{4-[4-(2-[1,2,3]triazol-1-yl-ethyl)-phenoxy]-butyl}-piperazine] | 51 | 96.8 | 46.9 |  |
| COc1ccccc1N1CCN(CCCCOc2ccc(CCn3ncnn3)cc2)CC1 [Example 51, 1-(2-methoxy-phenyl)-4-{4-[4-(2-tetrazol-2-yl-ethyl)-phenoxy]-butyl}-piperazine] | 47 | 44.4 | 14.7 |  |

Second part, led by results:

| inhibition at 0.01 µM [2] [%] | Structure (SMILES) | inhibition in vivo at 7.5 mg/kg [1] [%] | inhibition in vivo at 1 mg/kg [3] [%] | inhibition in vivo at 3 mg/kg [1] [%] |
| --- | --- | --- | --- | --- |
| 50.7 | COc1ccccc1N1CCN(CCCCOc2cccc(Cn3ccnc3)c2)CC1 [Example 5, 1-[4-(3-imidazol-1-ylmethyl-phenoxy)-butyl]-4-(2-methoxy-phenyl)-piperazine-hydrochloride] | 60.3 | 21.2 |  |
| 78.4 | COc1ccccc1N1CCN(CCCCOc2cccc(Cn3cnnn3)c2)CC1 [Example 7, 1-(2-methoxy-phenyl)-4-[4-(3-tetrazol-1-ylmethyl-phenoxy)-butyl]-piperazine hydrochloride] | 61.1 | 21.1 |  |
| 60.9 | COc1ccccc1N1CCN(CCCCOc2ccc(Cn3ccnn3)cc2)CC1 [Example 12, 1-(2-methoxy-phenyl)-4-[4-(4-[1,2,3]triazol-1-ylmethyl-phenoxy)-butyl]-piperazine] |  | 12.7 | 97.3 |
| 51.6 | COc1ccccc1N1CCN(CCCCOc2cccc(Cn3nccn3)c2)CC1 [Example 24, 1-(2-methoxy-phenyl)-4-[4-(3-[1,2,3]triazol-2-ylmethyl-phenoxy)-butyl]-piperazine] |  |  | 62.6 |
| 70 | COc1ccccc1N1CCN(CCCCOc2ccc(CCn3ccnc3)cc2)CC1 [Example 47, 1-{4-[4-(2-imidazol-1-yl-ethyl)-phenoxy]-butyl}-4-(2-methoxy-phenyl)-piperazine] |  |  | 39.3 |
